The text below walks through data of patent US20110237679A1, “NOVEL ANTIVIRAL COMPOUNDS, COMPOSITIONS, AND METHODS OF USE” (CYTOKINE PHARMASCIENCES, INC., priority 2008, published 2011).

This experiment can be described thus: in vitro activity comparison (FIG. 1). The following applies: relative to ITI-367. The format is cell-based.

Regarding `COc1ccccc1C(=Nc1cccc(C(F)(F)F)c1)NO` [CPSI-00220, N-hydroxy-2-methoxy-N′-(3-trifluoromethyl-phenyl)-benzamidine], the “effectiveness in vitro compared with ITI-367” value is given as “equally (and possibly more) as effective as ITI-367”.
